Measurements as given in patent publication US8541380B2, “C-aryl glucoside SGLT2 inhibitors and pharmaceutical compositions comprising same” (Green Cross Corporation, priority 2009, dated 2013).

Molecular target: human SGLT2 (Homo sapiens (Human), UniProt P31639)
Experiment: hSGLT2 inhibitory activity, sodium-dependent 14C-AMG glucose transport assay in CHO cells expressing hSGLT2
Type: cell-based
Conditions: 14C-AMG uptake, CHO cells expressing hSGLT2, 37° C. for 2 h
Excerpt: Human SGLT2 (hSGLT2) gene was amplified by PCR from cDNA-Human Adult Normal Tissue Kidney (Invitrogen, Carlsbad, Calif.). The hSGLT2 sequence was cloned into pcDNA3.1(+) for mammalian expression and were stably transfected into Chinese hamster ovary (CHO) cells. SGLT2-expressing clones were selected based on resistance to G418 antibiotic (Geneticin®, Invitrogen, Carlsbad, Calif.) and activity in the ^14C-α-methyl-D-glucopyranoside (^14C-AMG) uptake assay.
For sodium-dependent glucose transport assay, cells expressing hSGLT2 were seeded into a 96-well culture plate at a density of 5×10^4 cells/well in RPMI medium 1640 containing 10% fetal bovine serum. The cells were used 1 day after plating. They were incubated in pretreatment buffer (10 mM HEPES, 5 mM Tris, 140 mM choline chloride, 2 mM KCl, 1 mM CaCl2, and 1 mM MgCl2, pH 7.4) at 37° C. for 10 min. They were then incubated in uptake buffer (10 mM HEPES, 5 mM Tris, 140 mM NaCl, 2 mM KCl, 1 mM CaCl2, 1 mM MgCl2, and 1 mM ^14C-nonlabeled AMG pH 7.4) containing ^14C-labeled (8 uM) and inhibitor or dimethyl sulfoxide (DMSO) vehicle at 37° C. for 2 h. Cells were washed twice with washing buffer (pretreatment buffer containing 10 mM AMG at room temperature) and then the radioactivity was measured using a liquid scintillation counter.

Sequence of human SGLT2 (P31639 whole entry): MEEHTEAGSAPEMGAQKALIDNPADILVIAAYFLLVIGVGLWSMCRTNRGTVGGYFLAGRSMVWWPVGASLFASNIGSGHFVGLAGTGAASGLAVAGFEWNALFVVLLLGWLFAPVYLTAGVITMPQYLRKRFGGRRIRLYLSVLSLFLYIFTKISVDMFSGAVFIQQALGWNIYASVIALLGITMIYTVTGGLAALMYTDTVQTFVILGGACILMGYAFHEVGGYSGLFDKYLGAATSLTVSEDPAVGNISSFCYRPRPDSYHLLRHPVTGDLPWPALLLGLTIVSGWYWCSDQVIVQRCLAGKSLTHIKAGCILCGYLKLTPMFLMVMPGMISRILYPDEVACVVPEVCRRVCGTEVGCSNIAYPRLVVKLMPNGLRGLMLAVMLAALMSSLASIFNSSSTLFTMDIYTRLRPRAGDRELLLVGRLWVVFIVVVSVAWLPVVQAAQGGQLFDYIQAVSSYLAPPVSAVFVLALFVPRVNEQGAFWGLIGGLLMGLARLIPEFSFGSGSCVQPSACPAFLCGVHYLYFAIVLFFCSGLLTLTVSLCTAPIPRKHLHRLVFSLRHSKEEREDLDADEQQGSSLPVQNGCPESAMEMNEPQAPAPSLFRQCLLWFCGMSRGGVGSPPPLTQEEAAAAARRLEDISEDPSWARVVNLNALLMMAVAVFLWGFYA

SMILES | IC50 [nM]
OC[C@H]1O[C@@H](c2ccc(Cl)c(Cc3nnc(-c4ccco4)s3)c2)[C@H](O)[C@@H](O)[C@@H]1O [Example 1, (2S,3R,4R,5S,6R)-2-(4-Chloro-3-((5-(furan-2-yl)-1,3,4-thiadiazol-2-yl)methyl)phenyl)-6-(hydroxymethyl)-tetrahydro-2H-pyran-3,4,5-triol] | 7.03
OC[C@H]1O[C@@H](c2cc(Cc3nnc(-c4ccco4)s3)c3ccccc3c2)[C@H](O)[C@@H](O)[C@@H]1O [Example 95, (2S,3R,4R,5S,6R)-2-(4-((5-(Furan-2-yl)-1,3,4-thiadiazol-2-yl)methyl)naphthalen-2-yl)-6-(hydroxymethyl)-tetrahydro-2H-pyran-3,4,5-triol] | 323
OC[C@H]1O[C@@H](c2ccc(Cl)c(Cc3nnc(-c4cc5ccccc5cn4)s3)c2)[C@H](O)[C@@H](O)[C@@H]1O [Example 18, (2S,3R,4R,5S,6R)-2-(4-Chloro-3-((5-(isoquinolin-3-yl)-1,3,4-thiadiazol-2-yl)methyl)phenyl)-6-(hydroxymethyl)-tetrahydro-2H-pyran-3,4,5-triol] | 81.6
OC[C@H]1OC(c2ccc(Cl)c(Cc3nnc(C4CCCCC4)s3)c2)[C@H](O)[C@@H](O)[C@@H]1O (stereo partly drawn) [Example 24, (3R,4R,5S,6R)-2-(4-Chloro-3-((5-cyclohexyl-1,3,4-thiadiazol-2-yl)methyl)phenyl)-6-(hydroxymethyl)-tetrahydro-2H-pyran-3,4,5-triol] | 542
COc1c(Cc2nnc(-c3ccco3)s2)cc([C@@H]2O[C@H](CO)[C@@H](O)[C@H](O)[C@H]2O)c2ccccc12 [Example 93, (2S,3R,4R,5S,6R)-2-(3-((5-(Furan-2-yl)-1,3,4-thiadiazol-2-yl)methyl)-4-methoxynaphthalen-1-yl)-6-(hydroxymethyl)-tetrahydro-2H-pyran-3,4,5-triol] | 10.7
COc1cc(Cl)c(Cc2nnc(-c3ccco3)s2)cc1[C@@H]1O[C@H](CO)[C@@H](O)[C@H](O)[C@H]1O [Example 97, (2S,3R,4R,5S,6R)-2-(4-Chloro-5-((5-(furan-2-yl)-1,3,4-thiadiazol-2-yl)methyl)-2-methoxyphenyl)-6-(hydroxymethyl)-tetrahydro-2H-pyran-3,4,5-triol] | 5.55
OC[C@H]1O[C@@H](c2ccc(Cl)c(Cc3nnc(-c4cnc(-c5ccncc5)s4)s3)c2)[C@H](O)[C@@H](O)[C@@H]1O [Example 14, (2S,3R,4R,5S,6R)-2-(4-Chloro-3-((5-(2-(pyridin-4-yl)thiazol-5-yl)-1,3,4-thiadiazol-2-yl)methyl)phenyl)-6-(hydroxymethyl)-tetrahydro-2H-pyran-3,4,5-triol] | 72.6
OC[C@H]1O[C@@H](c2ccc(Cl)c(Cc3nnc(-c4ccccc4)s3)c2)[C@H](O)[C@@H](O)[C@@H]1O [Example 28, (2S,3R,4R,5S,6R)-2-(4-Chloro-3-((5-phenyl-1,3,4-thiadiazol-2-yl)methyl)phenyl)-6-(hydroxymethyl)-tetrahydro-2H-pyran-3,4,5-triol] | 16.6
OC[C@H]1O[C@@H](c2ccc(Cl)c(Cc3ccc(OC4CCCCC4)nn3)c2)[C@H](O)[C@@H](O)[C@@H]1O [Example 59, (2S,3R,4R,5S,6R)-2-(4-Chloro-3-((6-(cyclohexyloxy)pyridazin-3-yl)methyl)phenyl)-6-(hydroxymethyl)-tetrahydro-2H-pyran-3,4,5-triol] | 111
CCCc1ccc(Cc2cc([C@@H]3O[C@H](CO)[C@@H](O)[C@H](O)[C@H]3O)ccc2Cl)nn1 [Example 74, (2S,3R,4R,5S,6R)-2-(4-Chloro-3-((6-propylpyridazin-3-yl)methyl)phenyl)-6-(hydroxymethyl)-tetrahydro-2H-pyran-3,4,5-triol] | 237
CSc1nnc(Cc2cc([C@@H]3O[C@H](CO)[C@@H](O)[C@H](O)[C@H]3O)ccc2Cl)cc1C [Example 82, (2S,3R,4R,5S,6R)-2-(4-Chloro-3-((5-methyl-6-(methylthio)pyridazin-3-yl)methyl)phenyl)-6-(hydroxymethyl)tetrahydro-2H-pyran-3,4,5-triol] | 1520
OC[C@H]1OC(c2ccc(Cl)c(Cc3nnc(/C=C/c4ccccc4)s3)c2)[C@H](O)[C@@H](O)[C@@H]1O (stereo partly drawn) [Example 27, (3R,4R,5S,6R,E)-2-(4-Chloro-3-((5-styryl-1,3,4-thiadiazol-2-yl)methyl)phenyl)-6-(hydroxymethyl)-tetrahydro-2H-pyran-3,4,5-triol] | 730
OC[C@H]1OC(c2ccc(Cl)c(Cc3nnc(-c4cccnc4)s3)c2)[C@H](O)[C@@H](O)[C@@H]1O (stereo partly drawn) [Example 21, (3R,4R,5S,6R)-2-(4-Chloro-3-((5-(pyridin-3-yl)-1,3,4-thiadiazol-2-yl)methyl)phenyl)-6-(hydroxymethyl)-tetrahydro-2H-pyran-3,4,5-triol] | 45.3
CC(Cc1nnc(Cc2cc(C3O[C@H](CO)[C@@H](O)[C@H](O)[C@H]3O)ccc2Cl)s1)c1ccccc1 (stereo partly drawn) [Example 26, (3R,4R,5S,6R)-2-(4-Chloro-3-((5-(2-phenylpropyl)-1,3,4-thiadiazol-2-yl)methyl)phenyl)-6-(hydroxymethyl)-tetrahydro-2H-pyran-3,4,5-triol] | 548
Cc1cc(-c2nnc(Cc3cc([C@@H]4O[C@H](CO)[C@@H](O)[C@H](O)[C@H]4O)ccc3Cl)s2)no1 [Example 12, (2S,3R,4R,5S,6R)-2-(4-Chloro-3-((5-(5-methylisoxazol-3-yl)-1,3,4-thiadiazol-2-yl)methyl)phenyl)-6-(hydroxymethyl)tetrahydro-2H-pyran-3,4,5-triol] | 257
OC[C@H]1O[C@@H](c2cc(Cc3nnc(-c4ccco4)s3)c(O)c3ccccc23)[C@H](O)[C@@H](O)[C@@H]1O [Example 94, (2S,3R,4R,5S,6R)-2-(3-((5-(Furan-2-yl)-1,3,4-thiadiazol-2-yl)methyl)-4-hydroxynaphthalen-1-yl)-6-(hydroxymethyl)-tetrahydro-2H-pyran-3,4,5-triol] | 24.8
